Measured values from patent US11912723B2, “KRAS modulators and uses thereof” (Quanta Therapeutics, Inc., priority 2022, dated 2024).

biological target: T1, GST-tagged KRAS G12D (2-169) (Homo sapiens, UniProt P01116, G12D); assay: Nucleotide exchange assay (NEA), HTRF of SOS-mediated GTP-DY-647P1 binding; type: biochemical; details: 5 nM GST-KRAS G12D, 20 nM SOScat, 150 nM GTP; compound 1 h at RT
T1 construct: GST-tagged KRAS^G12D (2-169, Reaction Biology, MSC-11-539); purchased Reaction Biology MSC-11-539 (KRAS G12D); MSC-11-502 (SOS1cat)
Outline: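 SOS1cat (564-1049)-driven loading of GTP-DY-647P1 onto KRAS G12D, read by HTRF with anti-GST Tb cryptate donor; compound preincubated with KRAS 1 h at RT. Final 5 nM KRAS, 20 nM SOScat, 150 nM GTP, pH 7.3 HEPES buffer; read up to 90 min at RT. Blanked to no-SOS1; 4-parameter fit of % inhibition.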

T1 sequence (P01116 2-169 isoform P01116-2 G12D): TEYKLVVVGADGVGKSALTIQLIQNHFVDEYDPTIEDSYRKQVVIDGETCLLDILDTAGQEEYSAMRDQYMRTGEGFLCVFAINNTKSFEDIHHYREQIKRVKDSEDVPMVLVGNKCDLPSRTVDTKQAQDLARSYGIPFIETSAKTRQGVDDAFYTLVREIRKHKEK

Row | Structure (SMILES) | IC50 [nM]
1 | O=C(c1nn2c(c1Cl)CN(c1nc(OC[C@@]34CCCN3C[C@H](F)C4)nc3c1CO[C@@]1(CCc4c(Cl)cccc41)C3)CCC2)N1CCOCC1 [Compound 45, [3-chloro-5-[(7S)-4′-chloro-2-[[(2R,8S)-2-fluoro-1,2,3,5,6,7-hexahydropyrrolizin-8-yl]methoxy]spiro[5,8-dihydropyrano[4,3-d]pyrimidine-7,1′-indane]-4-yl]-4,6,7,8-tetrahydropyrazolo[1,5-a][1,4]diazepin-2-yl]-morpholino-methanone] | < 10
2 | C[C@@]1(NC#N)CCCN(c2nc(OC[C@@]34CCCN3C[C@H](F)C4)nc3c2COC2(CCc4c(Cl)cccc42)C3)C1 (stereo partly drawn) [Compound 46A, [(3R)-1-[(7*)-4′-chloro-2-[[(2R,8S)-2-fluoro-1,2,3,5,6,7-hexahydropyrrolizin-8-yl]methoxy]spiro[5,8-dihydropyrano[4,3-d]pyrimidine-7,1′-indane]-4-yl]-3-methyl-3-piperidyl]cyanamide; 2,2,2-trifluoroacetic acid] | 100 to 1000
3 | CN(C)C(=O)c1nn2c(c1Cl)CN(c1nc(OCC3(CN4CCOCC4)CC3)nc3c1CO[C@@]1(CCc4c(Cl)cccc41)C3)CCC2 [Compound 47, 3-chloro-5-[(7S)-4′-chloro-2-[[1-(morpholinomethyl)cyclopropyl]methoxy]spiro[5,8-dihydropyrano[4,3-d]pyrimidine-7,1′-indane]-4-yl]-N,N-dimethyl-4,6,7,8-tetrahydropyrazolo[1,5-a][1,4]diazepine-2-carboxamide] | < 10
4 | O=C(c1nn2c(c1Cl)CN(c1nc(OC[C@@]34CCCN3C[C@H](F)C4)nc3c1CO[C@@]1(CCc4c(Cl)cccc41)C3)CCC2)N1CCNCC1 [Compound 49, [3-chloro-5-[(7S)-4′-chloro-2-[[(2R,8S)-2-fluoro-1,2,3,5,6,7-hexahydropyrrolizin-8-yl]methoxy]spiro[5,8-dihydropyrano[4,3-d]pyrimidine-7,1′-indane]-4-yl]-4,6,7,8-tetrahydropyrazolo[1,5-a][1,4]diazepin-2-yl]-piperazin-1-yl-methanone] | < 10
5 | CN1CCN(C(=O)c2nn3c(c2Cl)CN(c2nc(OC[C@@]45CCCN4C[C@H](F)C5)nc4c2CO[C@@]2(CCc5c(Cl)cccc52)C4)CCC3)CC1 [Compound 50, [3-chloro-5-[(7S)-4′-chloro-2-[[(2R,8S)-2-fluoro-1,2,3,5,6,7-hexahydropyrrolizin-8-yl]methoxy]spiro[5,8-dihydropyrano[4,3-d]pyrimidine-7,1′-indane]-4-yl]-4,6,7,8-tetrahydropyrazolo[1,5-a][1,4]diazepin-2-yl]-(4-methylpiperazin-1-yl)methanone] | < 10
6 | CN(C)C(=O)c1nn2c(c1Cl)CN(c1nc(OC[C@@]34CCCN3C[C@H](F)C4)nc3c1CN(C)[C@@]1(CCc4c(Cl)cccc41)C3)CCC2 [Compound 55, 3-chloro-5-((S)-4-chloro-2′-(((2R,7aS)-2-fluorotetrahydro-1H-pyrrolizin-7a(5H)-yl)methoxy)-6′-methyl-2,3,5′,8′-tetrahydro-6′H-spiro[indene-1,7′-pyrido[4,3-d]pyrimidin]-4′-yl)-N,N-dimethyl-5,6,7,8-tetrahydro-4H-pyrazolo[1,5-a][1,4]diazepine-2-carboxamide] | < 10
7 | CN1Cc2c(nc(OC[C@@]34CCCN3C[C@H](F)C4)nc2N2CCC[C@]3(C2)NC(=O)NC3=O)C[C@]12CCc1ccccc12 [Compound 60, (5R)-9-[(7S)-2-[[(2R,8S)-2-fluoro-1,2,3,5,6,7-hexahydropyrrolizin-8-yl]methoxy]-6-methyl-spiro[5,8-dihydropyrido[4,3-d]pyrimidine-7,1′-indane]-4-yl]-1,3,9-triazaspiro[4.5]decane-2,4-dione] | 100 to 1000
8 | CN(C)C(=O)c1nn2c(c1Cl)CN(c1nc(OC[C@@]34CCCN3C[C@H](F)C4)nc3c1CN(C)[C@@]1(CCc4c(F)ccc(F)c41)C3)CCC2 [Compound 61, 3-chloro-5-[(7S)-4′,7′-difluoro-2-[[(2R,8S)-2-fluoro-1,2,3,5,6,7-hexahydropyrrolizin-8-yl]methoxy]-6-methyl-spiro[5,8-dihydropyrido[4,3-d]pyrimidine-7,1′-indane]-4-yl]-N,N-dimethyl-4,6,7,8-tetrahydropyrazolo[1,5-a][1,4]diazepine-2-carboxamide] | < 10
9 | CN(C)C(=O)c1nn2c(c1Cl)CN(c1nc(OC[C@@]34CCCN3C[C@H](F)C4)nc3c1CN(C)[C@@]1(CCc4cccc(F)c41)C3)CCC2 [Compound 63, 3-chloro-5-[(7S)-7′-fluoro-2-[[(2R,8S)-2-fluoro-1,2,3,5,6,7-hexahydropyrrolizin-8-yl]methoxy]-6-methyl-spiro[5,8-dihydropyrido[4,3-d]pyrimidine-7,1′-indane]-4-yl]-N,N-dimethyl-4,6,7,8-tetrahydropyrazolo[1,5-a][1,4]diazepine-2-carboxamide] | < 10
10 | CN(C)C(=O)c1nn2c(c1Cl)CN(c1nc(OC[C@@]34CCCN3C[C@H](F)C4)nc3c1CN(C)[C@@]1(CCc4c(F)cccc41)C3)CCC2 [Compound 65, 3-chloro-5-[(7S)-4′-fluoro-2-[[(2R,8S)-2-fluoro-1,2,3,5,6,7-hexahydropyrrolizin-8-yl]methoxy]-6-methyl-spiro[5,8-dihydropyrido[4,3-d]pyrimidine-7,1′-indane]-4-yl]-N,N-dimethyl-4,6,7,8-tetrahydropyrazolo[1,5-a][1,4]diazepine-2-carboxamide] | < 10
11 | CN(C)C(=O)c1nn2c(c1Cl)CN(c1nc(OC[C@@]34CCCN3C[C@H](F)C4)nc3c1CN(C)[C@@]1(CCc4cccc(Cl)c41)C3)CCC2 [Compound 69, 3-chloro-5-[(7S)-7′-chloro-2-[[(2R,8S)-2-fluoro-1,2,3,5,6,7-hexahydropyrrolizin-8-yl]methoxy]-6-methyl-spiro[5,8-dihydropyrido[4,3-d]pyrimidine-7,1′-indane]-4-yl]-N,N-dimethyl-4,6,7,8-tetrahydropyrazolo[1,5-a][1,4]diazepine-2-carboxamide] | < 10
12 | CN(C)C(=O)c1cc2n(n1)CCCN(c1nc(OC[C@@]34CCCN3C[C@H](F)C4)nc3c1CN(C)[C@@]1(CCCc4ccccc41)C3)C2 [Compound 72, 5-[(7S)-2-[[(2R,8S)-2-fluoro-1,2,3,5,6,7-hexahydropyrrolizin-8-yl]methoxy]-6-methyl-spiro[5,8-dihydropyrido[4,3-d]pyrimidine-7,1′-tetralin]-4-yl]-N,N-dimethyl-4,6,7,8-tetrahydropyrazolo[1,5-a][1,4]diazepine-2-carboxamide] | < 10
13 | CN1Cc2c(nc(OC[C@@]34CCCN3C[C@H](F)C4)nc2N2CCCn3nc(N)c(Cl)c3C2)C[C@]12CCCc1ccccc12 [Compound 79, 3-chloro-5-[(7S)-2-[[(2R,8S)-2-fluoro-1,2,3,5,6,7-hexahydropyrrolizin-8-yl]methoxy]-6-methyl-spiro[5,8-dihydropyrido[4,3-d]pyrimidine-7,1′-tetralin]-4-yl]-4,6,7,8-tetrahydropyrazolo[1,5-a][1,4]diazepin-2-amine] | < 10
14 | CN1Cc2c(nc(OC[C@@]34CCCN3C[C@H](F)C4)nc2N2C[C@H]3CC[C@@H](C2)N3)C[C@]12CCCc1ccccc12 [Compound 84, (7S)-4-[(1R,5S)-3,8-diazabicyclo[3.2.1]octan-3-yl]-2-[[(2R,8S)-2-fluoro-1,2,3,5,6,7-hexahydropyrrolizin-8-yl]methoxy]-6-methyl-spiro[5,8-dihydropyrido[4,3-d]pyrimidine-7,1′-tetralin]] | < 10
15 | Cc1nc(-c2nn3c(c2Cl)CN(c2nc(OC[C@@]45CCCN4C[C@H](F)C5)nc4c2CN(C)[C@@]2(CCCc5ccccc52)C4)CCC3)no1 [Compound 87, 3-[3-chloro-5-[(7S)-2-[[(2R,8S)-2-fluoro-1,2,3,5,6,7-hexahydropyrrolizin-8-yl]methoxy]-6-methyl-spiro[5,8-dihydropyrido[4,3-d]pyrimidine-7,1′-tetralin]-4-yl]-4,6,7,8-tetrahydropyrazolo[1,5-a][1,4]diazepin-2-yl]-5-methyl-1,2,4-oxadiazole] | < 10
16 | CN(C)CC1(COc2nc3c(c(N4CCCn5nc(C(=O)N(C)C)c(Cl)c5C4)n2)CN(C)[C@@]2(CCCc4ccccc42)C3)CC1(F)F (stereo partly drawn) [Compound 97, 3-chloro-5-[(7S)-2-[[1-[(dimethylamino)methyl]-2,2-difluoro-cyclopropyl]methoxy]-6-methyl-spiro[5,8-dihydropyrido[4,3-d]pyrimidine-7,1′-tetralin]-4-yl]-N,N-dimethyl-4,6,7,8-tetrahydropyrazolo[1,5-a][1,4]diazepine-2-carboxamide] | < 10
17 | CN1Cc2c(nc(OC[C@@]34CCCN3C[C@H](F)C4)nc2N2CCCn3nc(-c4nnnn4C)c(Cl)c3C2)C[C@]12CCCc1ccccc12 [Compound 99, (7S)-4-[3-chloro-2-(1-methyltetrazol-5-yl)-4,6,7,8-tetrahydropyrazolo[1,5-a][1,4]diazepin-5-yl]-2-[[(2R,8S)-2-fluoro-1,2,3,5,6,7-hexahydropyrrolizin-8-yl]methoxy]-6-methyl-spiro[5,8-dihydropyrido[4,3-d]pyrimidine-7,1′-tetralin]] | < 10
